Measured values reported in US5331089A, “Peptides useful as tachykinin agonists” (Merck Sharpe & Dohme, Ltd., priority 1988, dated 1994).
Where a SMILES comes first, the peptide text is derived from it.

Biological target: T1, NK-2 tachykinin receptor (Rattus norvegicus, UniProt P16610)
T1 construct: The vas deferens is dissected free from the surrounding connective tissue and suspended in a 3 ml organ bath; from tissue; host or cells: isolated rat vas deferens (male Wistar rat), longitudinal muscle
T1 sequence (P16610 1-390): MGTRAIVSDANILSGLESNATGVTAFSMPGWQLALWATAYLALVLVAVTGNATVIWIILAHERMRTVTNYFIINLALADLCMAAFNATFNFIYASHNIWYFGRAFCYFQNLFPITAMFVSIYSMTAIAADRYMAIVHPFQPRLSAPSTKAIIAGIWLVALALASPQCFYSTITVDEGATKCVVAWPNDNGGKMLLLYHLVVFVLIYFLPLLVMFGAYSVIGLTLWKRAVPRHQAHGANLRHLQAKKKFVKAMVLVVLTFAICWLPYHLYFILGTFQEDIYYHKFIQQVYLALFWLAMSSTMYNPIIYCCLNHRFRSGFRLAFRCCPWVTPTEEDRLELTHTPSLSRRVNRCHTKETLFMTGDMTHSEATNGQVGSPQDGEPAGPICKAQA
Assay: Isolated rat vas deferens preparation: antagonism of eledoisin-induced increase in field-stimulated twitch
Type: cell-based
Conditions: isolated Wistar rat vas deferens, eledoisin as standard agonist, pA2 (-logKb) estimated from dose ratio; for Kb: read-out: pA2 (against eledoisin) (converted)
Protocol: The activity of the compounds of the accompanying Examples as tachykinin receptor antagonists was evaluated using the following method:
The tachykinin receptor present in the longitudinal muscle of the rat vas deferens has been characterised, using natural and synthetic tachykinins, as `NK-2`. This preparation is therefore used to determine the selectivity and potency of the peptides for this receptor sub-type.
Male Wistar rats weighing 200-300 g are killed by decapitation. The vas deferens is dissected free from the surrounding connective tissue and suspended in a 3 ml organ bath under an initial resting tension of 1 g. The tissue is maintained at 37° C. in modified KREBS HENSALEIT solution (NaCl 118.4, KCl 4.7, CaCl2 2.5, KH2 PO4 1.18, MgSO4.7H2 O 1.19, NaHCO3 25.0, D-glucose 11.1 mM), which is continuously gassed with a mixture of 95% O2 and 5% CO2. Field stimulated responses are elicited by trains of pulses delivered for 1 second every 20 seconds (7 Hz, 70-80 V, individual pulse duration 0.5 ms). […] Contractions remain reasonably constant for 3-4 hours with no spontaneous changes in resting tension. A dose-cycle of 10-15 minutes is used, drug contact time being about 3-5 minutes.
In all experiments eledoisin is used as a standard agonist. Eledoisin, in the dose range 10^-8 -3×10^-6 M, produces a dose-related increase in twitch height and, to a lesser extent, basal tension. A second dose-response curve is then constructed to the peptide under investigation.
To determine the potency of each peptide as an NK-2 antagonist, the test compound is added to the bathing medium, at an appropriate concentration, 20-30 minutes before the first dose of the second eledoisin dose-response curve. Thereafter addition of the test compound 5-10 minutes before the eledoisin dose is sufficient. The percentage increase in twitch produced by eledoisin in the presence and absence of the antagonist is expressed as a percentage of the maximum response of each individual dose-response curve. Thus all dose-response curves have the same maximum. From the dose ratio an estimate of the pA2 (-logKb) for each test compound can be determined:
pA2 =log[(DR-1)/(antagonist conc.)]

Row | Compound | Kb | pA2 (against eledoisin)
1 | CSCC[C@@H]1NC(=O)[C@H](CC(C)C)NC(=O)CNC(=O)[C@H](Cc2ccccc2)NC(=O)[C@H](Cc2c[nH]c3ccccc23)NC(=O)[C@H](CCC(N)=O)NC1=O [Example 3, Cyclo (Gln-Trp-Phe-Gly-Leu-Met)] (cyclo(FGLMQW)) | 10 nM | –
2 | CSCC[C@@H]1NC(=O)[C@H](CC(C)C)N2CC[C@@H](NC(=O)[C@H](Cc3ccccc3)N(C)C(=O)[C@@H](Cc3c[nH]c4ccccc34)NC(=O)[C@H](CCC(N)=O)NC(=O)[C@H](CCSC)NC(=O)[C@H](CC(C)C)N3CC[C@@H](NC(=O)[C@H](Cc4ccccc4)N(C)C(=O)[C@@H](Cc4c[nH]c5ccccc45)NC(=O)[C@H](CCC(N)=O)NC1=O)C3=O)C2=O [Example 5b, cyclo (Gln-D-Trp-(N-Me)Phe-(R)Gly[ANC-2]Leu-Met2] | 7940 nM | –
3 | Ac-LMQWFG-NH2 [Example 6, Acetyl-Leu-Met-Gln-Trp-Phe-Gly-NH2] | 158 nM | –
4 | Cyclo(Gln-Npa-Phe-(R)Gly[ANC-2]Leu-Met) [Example 2] | – | 5.6
